According to paper PMC10809383, “Synthesis and migrastatic activity of cytochalasin analogues lacking a macrocyclic moiety” (RSC Medicinal Chemistry, 2023):

How the values were obtained:
Assay type in all cases: cell-based
[1] = tested on: human fibroblasts (MRC-5); test: WST-1 viability assay, MRC-5 cells; settings: MRC5, 72 h treatment, WST-1 assay, 2D culture, 0–50 μM
Method: (§1) In addition, the cytotoxic activity of compounds 17, 20, and 22–30 was assessed by the WST-1 viability assay using BLM (human melanoma) and MRC-5 (noncancerous human fibroblasts) cells growing in a monolayer (2D cultures, Table 2) after 72 h of treatment.
(§2) Human cells from melanoma (BLM) and human lung fibroblasts (MRC-5, Merck, USA) were used to evaluate in vitro cytotoxicity of the prepared compounds. The cells were maintained at the exponential phase of growth (passaging done by trypsin–EDTA solution) in DMEM and MEM, for BLM and MRC-5, respectively, with stable L-glutamine and supplemented with 10% fetal bovine serum (Thermo Fisher Scientific, USA). The cells were kept in an incubator at 37 °C, 5% CO2 in the atmosphere, and 95% humidity.
(§3) The compound cytotoxicity was determined by a WST-1 viability assay (Merck, USA). The amount of 5000 BLM and MRC-5 cells were seeded into individual wells of 96-well plates in 100 μL of cell cultivation media and maintained in an incubator for 16 h. After this period, the cells were treated with a concentration series (0–50 μM) of the tested compounds diluted in another 100 μL of cultivation media, which was added to the wells containing cells and incubated for 72 h. Then, BLM and MRC-5 cell viability was evaluated by WST-1 agent (5% v/v solution in phenol red-free DMEM media), i.e., the cell media was discarded and 100 μL of WST-1 solution was added. After 2 h incubation, the absorbance of formazan, derived from the WST-1 tetrazolium salt was determined spectrophotometrically at 450 nm (reference at 650 nm) by a UV-vis spectrophotometer (Bio-Rad, USA). Untreated cells, cells treated only with a vehicle, and cells treated with cytochalasin B (1) and D (2) served as controls. The measurement occurred in three independent repetitions each of which consisted of three technical replicates. The data were plotted as dose–response curves from which the half-maximal inhibitory concentrations (IC50) were calculated using AAT Bioquest.

[2] = tested on: human melanoma cell line BLM; test: Spheroid invasion assay (migrastatic activity); settings: 10 µM, 24 h, BLM spheroids in collagen; DMSO control 1.02
Method: Compounds 17, 20, and 22–30 were screened for their migrastatic activity using a spheroid invasion assay with the human melanoma cell line BLM.[46] Spheroids were formed and subsequently treated with cytochalasin analogues at a concentration of 10 μM for 24 h. CytB (1) and CytD (2) served as reference compounds for comparison. There was no significant increase in cell migration observed for any of the compounds tested. […] However, the effect was less profound than that of the reference compounds 1 and 2.
The spheroid invasion assay was performed following a previously published protocol.[63] Briefly, BLM cells were grown as spheroids using 3D Petri Dish (Microtissues). After 2 days of spheroid formation, 1.5 mg mL^−1 collagen solution (rat tail, collagen type I) was prepared (1.5 mg mL^−1 rat-tail collagen, 1× DMEM, 1% (v/v) FBS) and added at the bottom of a 96-well plate. Spheroids were embedded into the collagen (one spheroid per well) and covered with another layer of the gel. Collagen was polymerized at 37 °C and subsequently overlaid with a cultivation medium. Images of spheroids were taken with Leica TCS SP2 microscope (5×/0.15 dry objective; LAS X Life Science Microscope software) immediately after their seeding into collagen and again after 24 h. The area of the spheroids at 0 and 24 h was measured using FiJi (Rasband, W.S., ImageJ, NIH, Bethesda, MD, USA). Cellular invasiveness was determined as an increase in spheroid area within 24 h. Three independent experiments were conducted with at least 8 spheroids analysed in each experiment. Statistical analysis was performed in GraphPad using one-way ANOVA. For numeric data and representative images from this assay, see ESI, ^† Table S1 and Fig. S1.
Table S1: Spheroid invasion assay with BLM cell line at 10 µM concentration, 24 h.
Figure S1: Representative images of BLM cell spheroid invasion assay with or without
inhibitor. Images were taken at 0 h and 24 h. using a Leica TCS SP2 microscope (5x/0.15
dry objective). DMSO (first column) was used as a control. Scale bar 500 µm.

[3] = tested on: human melanoma cells (BLM); test: WST-1 viability assay, BLM cells; settings: for IC50: Homo sapiens, 72 h treatment, WST-1 assay, 2D culture, 0–50 μM; for selectivity index (SI): MRC-5 versus BLM, 72 h, WST-1
Method: as §1, §2, §3

Row | SMILES | IC50 [1] [µM] | rel. spheroid area [2] | IC50 [3] [µM] | selectivity index (SI) [3]
1 | COC(=O)[C@@]12C(=O)N[C@@H](Cc3ccccc3)[C@@H]1[C@H](C)C(C)=C[C@@H]2CCOCCc1ccccc1 [Compound 17a, Methyl (1S,3aR,4S,7S,7aR)-1-benzyl-6,7-dimethyl-3-oxo-4-(2-phenethoxyethyl)-1,2,3,4,7,7a-hexahydro-3aH-isoindole-3a-carboxylate] | 30.5 ± 0.38 | 1.21 | 27.1 ± 1.24 | 1.1
2 | COC(=O)[C@@]12C(=O)N[C@@H](Cc3ccccc3)[C@@H]1[C@H](C)C(C)=C[C@@H]2CCOCCc1ccc(OC)cc1 [Compound 17b, Methyl (1S,3aR,4S,7S,7aR)-1-benzyl-4-(2-(4-methoxyphenethoxy)ethyl)-6,7-dimethyl-3-oxo-1,2,3,4,7,7a-hexahydro-3aH-isoindole-3a-carboxylate] | 40.5 ± 4.65 | 1.14 | 35.3 ± 4.75 | 1.1
3 | COC(=O)[C@@]12C(=O)N[C@@H](Cc3ccccc3)[C@@H]1[C@H](C)C(C)=C[C@@H]2CCOCCc1ccc(C)cc1 [Compound 17c, Methyl (1S,3aR,4S,7S,7aR)-1-benzyl-6,7-dimethyl-4-(2-(4-methylphenethoxy)ethyl)-3-oxo-1,2,3,4,7,7a-hexahydro-3aH-isoindole-3a-carboxylate] | 21.5 ± 2.78 | 0.93 | 30.3 ± 4.87 | 0.71
4 | COC(=O)[C@@]12C(=O)N[C@@H](Cc3ccccc3)[C@@H]1[C@H](C)C(C)=C[C@@H]2CCOCCc1ccc(F)cc1 [Compound 17d, Methyl (1S,3aR,4S,7S,7aR)-1-benzyl-4-(2-(4-fluorophenethoxy)ethyl)-6,7-dimethyl-3-oxo-1,2,3,4,7,7a-hexahydro-3aH-isoindole-3a-carboxylate] | 33.5 ± 4.98 | 1.24 | 27.7 ± 2.45 | 1.2
5 | COC(=O)[C@@]12C(=O)N[C@@H](Cc3ccccc3)[C@@H]1[C@H](C)C(C)=C[C@@H]2CCOCCc1cccc(F)c1 [Compound 17e, Methyl (1S,3aR,4S,7S,7aR)-1-benzyl-4-(2-(3-fluorophenethoxy)ethyl)-6,7-dimethyl-3-oxo-1,2,3,4,7,7a-hexahydro-3aH-isoindole-3a-carboxylate] | 31.9 ± 4.02 | 0.96 | 25.9 ± 2.97 | 1.2
6 | COC(=O)[C@@]12C(=O)N[C@@H](Cc3ccccc3)[C@@H]1[C@H](C)C(C)=C[C@@H]2CCOCCc1ccccc1F [Compound 17f, Methyl (1S,3aR,4S,7S,7aR)-1-benzyl-4-(2-(2-fluorophenethoxy)ethyl)-6,7-dimethyl-3-oxo-1,2,3,4,7,7a-hexahydro-3aH-isoindole-3a-carboxylate] | 34.5 ± 4.69 | 0.92 | 21 ± 4.32 | 1.6
7 | COC(=O)[C@@]12C(=O)N[C@@H](Cc3ccccc3)[C@@H]1[C@H](C)C(C)=C[C@@H]2CCOCCc1ccc(Cl)cc1 [Compound 17g, Methyl (1S,3aR,4S,7S,7aR)-1-benzyl-4-(2-(4-chlorophenethoxy)ethyl)-6,7-dimethyl-3-oxo-1,2,3,4,7,7a-hexahydro-3aH-isoindole-3a-carboxylate] | 22.2 ± 12.2 | 1.17 | 19.5 ± 1.23 | 1.1
8 | COC(=O)[C@@]12C(=O)N[C@@H](Cc3ccccc3)[C@@H]1[C@H](C)C(C)=C[C@@H]2CCOCCc1ccc(Br)cc1 [Compound 17h, Methyl (1S,3aR,4S,7S,7aR)-1-benzyl-4-(2-(4-bromophenethoxy)ethyl)-6,7-dimethyl-3-oxo-1,2,3,4,7,7a-hexahydro-3aH-isoindole-3a-carboxylate] | > 50 | 1.05 | > 50 | 
9 | COC(=O)[C@@]12C(=O)N[C@@H](Cc3ccccc3)[C@@H]1[C@H](C)C(C)=C[C@@H]2CCOCCc1cccc(Br)c1 [Compound 17i, Methyl (1S,3aR,4S,7S,7aR)-1-benzyl-4-(2-(3-bromophenethoxy)ethyl)-6,7-dimethyl-3-oxo-1,2,3,4,7,7a-hexahydro-3aH-isoindole-3a-carboxylate] | 31.2 ± 6.95 | 1.14 | 24.3 ± 1.82 | 1.3
10 | COC(=O)[C@@]12C(=O)N[C@@H](Cc3ccccc3)[C@@H]1[C@H](C)C(C)=C[C@@H]2CCOCCc1ccc([N+](=O)[O-])cc1 [Compound 17j, Methyl (1S,3aR,4S,7S,7aR)-1-benzyl-6,7-dimethyl-4-(2-(4-nitrophenethoxy)ethyl)-3-oxo-1,2,3,4,7,7a-hexahydro-3aH-isoindole-3a-carboxylate] | 34.7 ± 6.18 | 1.12 | 35.2 ± 2.51 | 1.0
11 | COC(=O)[C@@]12C(=O)N[C@@H](Cc3ccccc3)[C@@H]1[C@H](C)[C@@]1(C)O[C@H]1[C@@H]2CCOCCc1ccccc1 [Compound 22a, Methyl (1aS,2R,2aS,5S,5aR,6S,6aR)-5-benzyl-6,6a-dimethyl-3-oxo-2-(2-phenethoxyethyl)octahydro-2aH-oxireno[2,3-f]isoindole-2a-carboxylate] | > 50 | 1.11 | > 50 | 
12 | COC(=O)[C@@]12C(=O)N[C@@H](Cc3ccccc3)[C@@H]1[C@H](C)[C@@]1(C)O[C@H]1[C@@H]2CCOCCc1ccc(OC)cc1 [Compound 22b, Methyl (1aS,2R,2aS,5S,5aR,6S,6aR)-5-benzyl-2-(2-(4-methoxyphenethoxy)ethyl)-6,6a-dimethyl-3-oxooctahydro-2aH-oxireno[2,3-f]isoindole-2a-carboxylate] | > 50 | 1.24 | 20.6 ± 6.43 | >2.4
13 | COC(=O)[C@@]12C(=O)N[C@@H](Cc3ccccc3)[C@@H]1[C@H](C)[C@@]1(C)O[C@H]1[C@@H]2CCOCCc1ccc(Br)cc1 [Compound 22h, Methyl (1aS,2R,2aS,5S,5aR,6S,6aR)-5-benzyl-2-(2-(4-bromophenethoxy)ethyl)-6,6a-dimethyl-3-oxooctahydro-2aH-oxireno[2,3-f]isoindole-2a-carboxylate] | > 50 | 0.98 | > 50 | 
14 | COC(=O)[C@@]12C(=O)N[C@@H](Cc3ccccc3)[C@@H]1[C@H](C)[C@@](C)(O)[C@@H](O)[C@@H]2CCOCCc1ccccc1 [Compound 23a, Methyl (1S,3aS,4R,5S,6R,7S,7aR)-1-benzyl-5,6-dihydroxy-6,7-dimethyl-3-oxo-4-(2-phenethoxyethyl)octahydro-3aH-isoindole-3a-carboxylate] | 20.9 ± 2.38 | 1.01 | 9.41 ± 2.52 | 2.2
15 | COC(=O)[C@@]12C(=O)N[C@@H](Cc3ccccc3)[C@@H]1[C@H](C)[C@@](C)(O)[C@@H](O)[C@@H]2CCOCCc1ccc(OC)cc1 [Compound 23b, Methyl (1S,3aS,4R,5S,6R,7S,7aR)-1-benzyl-5,6-dihydroxy-4-(2-(4-methoxyphenethoxy)ethyl)-6,7-dimethyl-3-oxooctahydro-3aH-isoindole-3a-carboxylate] | > 50 | 1.10 | > 50 | 
